# Assay results from US11414379B2, “SPAK kinase inhibitors as neuroprotective agents” (United States Government as represented by the Department …, priority 2018, dated 2022).
# Columns and labels:
# Assay in all cases: Kinase panel (Dundee profiling)
# Assay type in all cases: biochemical
# TrkA = TrkA (Homo sapiens, UniProt P04629); settings: read-out: % residual kinase activity
# Experimental: (§1) The kinase selectivity of ZT-1a was further assessed using standard radioisotopic enzymatic assays against a panel of 140 recombinant kinases (Dundee profiling, Table 2) (Bain et al. (2007) The Biochemical journal 408, 297-315). ZT-1a at a concentration of 10 μM inhibited only MAPKAP-K2 activity 85±7% compared to DMSO control, representing high kinase selectivity.
# (§2) Referring to Table 2, ZT-1a was tested at 10 and 1 μM against a panel of 140 recombinant kinases in an enzymatic activity-based assay performed by the International Centre for Kinase Profiling in the MRC Protein Phosphorylation and Ubiquitylation Unit. Values represent % residual kinase activity (mean+/−SEM, n=3). Kinases labelled with an asterick* are inhibited ≥50% by ZT-1a.
# IR = IR (Homo sapiens, UniProt P06213); settings: read-out: % residual kinase activity
# Experimental: as §1, §2
# SGK1 = SGK1 (Homo sapiens, UniProt O00141); settings: read-out: % residual kinase activity
# Experimental: as §1, §2
# MLK3 = MLK3 (Homo sapiens, UniProt Q16584); settings: read-out: % residual kinase activity
# Chain of MLK3 (Q16584 whole entry, species assumed): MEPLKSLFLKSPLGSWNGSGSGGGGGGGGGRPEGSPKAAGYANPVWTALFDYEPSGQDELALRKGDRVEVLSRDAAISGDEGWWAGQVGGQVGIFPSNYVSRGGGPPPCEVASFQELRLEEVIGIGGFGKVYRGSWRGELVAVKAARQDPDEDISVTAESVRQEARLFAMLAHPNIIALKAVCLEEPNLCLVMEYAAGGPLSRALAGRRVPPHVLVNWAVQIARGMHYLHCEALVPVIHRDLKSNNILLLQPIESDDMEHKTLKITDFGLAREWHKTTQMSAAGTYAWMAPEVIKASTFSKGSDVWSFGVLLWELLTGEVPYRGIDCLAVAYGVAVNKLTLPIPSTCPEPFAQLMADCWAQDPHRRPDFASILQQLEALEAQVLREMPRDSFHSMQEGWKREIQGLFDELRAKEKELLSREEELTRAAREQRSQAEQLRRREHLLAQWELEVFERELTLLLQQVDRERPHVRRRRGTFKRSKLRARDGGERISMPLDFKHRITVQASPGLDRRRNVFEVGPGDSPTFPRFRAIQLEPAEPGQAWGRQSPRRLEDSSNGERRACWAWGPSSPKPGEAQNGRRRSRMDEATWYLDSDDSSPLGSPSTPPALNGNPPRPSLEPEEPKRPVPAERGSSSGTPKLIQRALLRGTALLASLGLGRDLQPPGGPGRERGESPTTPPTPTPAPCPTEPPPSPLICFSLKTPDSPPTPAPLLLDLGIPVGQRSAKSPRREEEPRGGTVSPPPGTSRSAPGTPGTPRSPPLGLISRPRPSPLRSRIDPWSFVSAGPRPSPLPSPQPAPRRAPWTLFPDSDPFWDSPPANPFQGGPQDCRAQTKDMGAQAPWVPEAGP
# Experimental: as §1, §2
# DDR2 = DDR2 (Homo sapiens, UniProt Q16832); settings: read-out: % residual kinase activity
# Experimental: as §1, §2
# ERK1 = ERK1 (Homo sapiens, UniProt P27361); settings: read-out: % residual kinase activity
# Experimental: as §1, §2
# WNK1 = WNK1 (Homo sapiens, UniProt Q9H4A3); settings: read-out: % residual kinase activity
# Experimental: as §1, §2
# SYK = SYK (Homo sapiens, UniProt P43405); settings: read-out: % residual kinase activity
# Experimental: as §1, §2
# ERK2 = ERK2 (Homo sapiens, UniProt P28482); settings: read-out: % residual kinase activity
# Chain of ERK2 (P28482 whole entry, species assumed): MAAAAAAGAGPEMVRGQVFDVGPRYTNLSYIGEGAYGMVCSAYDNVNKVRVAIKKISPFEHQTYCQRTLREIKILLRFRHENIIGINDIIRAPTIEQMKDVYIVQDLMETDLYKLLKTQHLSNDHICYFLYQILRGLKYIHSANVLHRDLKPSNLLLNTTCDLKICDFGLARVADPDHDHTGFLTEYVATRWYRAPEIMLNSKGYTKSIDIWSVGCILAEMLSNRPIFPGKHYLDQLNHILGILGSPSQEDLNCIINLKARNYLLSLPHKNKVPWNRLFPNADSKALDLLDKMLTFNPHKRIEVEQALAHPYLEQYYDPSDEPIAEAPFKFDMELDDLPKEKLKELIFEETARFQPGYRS
# Experimental: as §1, §2
# HIPK1 = HIPK1 (Homo sapiens, UniProt Q86Z02); settings: read-out: % residual kinase activity
# Chain of HIPK1 (Q86Z02 whole entry, species assumed): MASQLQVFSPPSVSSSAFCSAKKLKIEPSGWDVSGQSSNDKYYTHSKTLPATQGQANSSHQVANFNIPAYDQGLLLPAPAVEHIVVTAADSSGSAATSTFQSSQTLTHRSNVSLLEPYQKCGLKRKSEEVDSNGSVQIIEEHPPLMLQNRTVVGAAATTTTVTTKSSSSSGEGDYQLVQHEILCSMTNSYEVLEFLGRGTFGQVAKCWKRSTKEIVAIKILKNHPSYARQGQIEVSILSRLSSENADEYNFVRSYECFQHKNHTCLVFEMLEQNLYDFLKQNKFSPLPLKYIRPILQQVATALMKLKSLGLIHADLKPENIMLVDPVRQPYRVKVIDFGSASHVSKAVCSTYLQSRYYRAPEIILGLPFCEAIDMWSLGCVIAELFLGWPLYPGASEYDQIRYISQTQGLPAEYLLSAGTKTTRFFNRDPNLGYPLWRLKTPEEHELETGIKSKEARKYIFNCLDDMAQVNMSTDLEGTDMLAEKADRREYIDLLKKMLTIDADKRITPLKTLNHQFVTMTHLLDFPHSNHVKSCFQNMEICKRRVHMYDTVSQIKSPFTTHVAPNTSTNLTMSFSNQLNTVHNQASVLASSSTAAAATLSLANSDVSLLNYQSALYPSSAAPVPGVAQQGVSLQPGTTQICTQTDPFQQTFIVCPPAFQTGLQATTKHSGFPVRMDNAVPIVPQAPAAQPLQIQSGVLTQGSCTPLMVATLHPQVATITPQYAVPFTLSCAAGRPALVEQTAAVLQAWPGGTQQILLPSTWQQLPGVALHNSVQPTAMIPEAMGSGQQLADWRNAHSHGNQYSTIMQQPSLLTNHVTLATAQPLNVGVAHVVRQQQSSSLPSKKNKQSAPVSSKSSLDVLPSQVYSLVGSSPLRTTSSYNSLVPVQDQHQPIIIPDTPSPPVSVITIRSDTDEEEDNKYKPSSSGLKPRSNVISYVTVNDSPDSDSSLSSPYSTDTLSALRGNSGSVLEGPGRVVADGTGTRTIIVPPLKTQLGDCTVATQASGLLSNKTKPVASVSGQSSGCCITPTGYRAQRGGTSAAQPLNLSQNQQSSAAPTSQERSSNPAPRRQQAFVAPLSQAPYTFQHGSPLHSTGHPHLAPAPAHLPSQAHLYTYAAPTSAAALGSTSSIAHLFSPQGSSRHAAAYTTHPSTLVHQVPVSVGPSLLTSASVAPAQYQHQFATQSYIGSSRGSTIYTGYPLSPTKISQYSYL
# Experimental: as §1, §2
# IRAK1 = IRAK1 (Homo sapiens, UniProt P51617); settings: read-out: % residual kinase activity
# Experimental: as §1, §2
# p38b MAPK = p38b MAPK (Homo sapiens, UniProt Q15759); settings: read-out: % residual kinase activity
# Experimental: as §1, §2
# TGFBR1 = TGFBR1 (Homo sapiens, UniProt P36897); settings: read-out: % residual kinase activity
# Chain of TGFBR1 (P36897 34-503, species assumed): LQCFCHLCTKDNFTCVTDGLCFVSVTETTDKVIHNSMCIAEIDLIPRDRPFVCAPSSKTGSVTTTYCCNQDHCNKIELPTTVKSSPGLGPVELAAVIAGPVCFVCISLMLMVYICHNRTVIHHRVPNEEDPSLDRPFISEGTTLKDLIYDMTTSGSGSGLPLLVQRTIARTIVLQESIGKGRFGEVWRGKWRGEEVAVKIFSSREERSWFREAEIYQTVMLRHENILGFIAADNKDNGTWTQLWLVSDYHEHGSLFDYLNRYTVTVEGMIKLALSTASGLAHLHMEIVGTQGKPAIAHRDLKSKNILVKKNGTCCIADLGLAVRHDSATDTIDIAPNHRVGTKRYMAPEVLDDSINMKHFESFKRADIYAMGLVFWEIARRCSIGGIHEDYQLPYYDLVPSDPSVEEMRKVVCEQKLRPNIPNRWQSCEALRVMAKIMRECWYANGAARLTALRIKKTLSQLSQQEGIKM
# Experimental: as §1, §2
# PIM2 = PIM2 (Homo sapiens, UniProt Q9P1W9); settings: read-out: % residual kinase activity
# Chain of PIM2 (Q9P1W9 whole entry, species assumed): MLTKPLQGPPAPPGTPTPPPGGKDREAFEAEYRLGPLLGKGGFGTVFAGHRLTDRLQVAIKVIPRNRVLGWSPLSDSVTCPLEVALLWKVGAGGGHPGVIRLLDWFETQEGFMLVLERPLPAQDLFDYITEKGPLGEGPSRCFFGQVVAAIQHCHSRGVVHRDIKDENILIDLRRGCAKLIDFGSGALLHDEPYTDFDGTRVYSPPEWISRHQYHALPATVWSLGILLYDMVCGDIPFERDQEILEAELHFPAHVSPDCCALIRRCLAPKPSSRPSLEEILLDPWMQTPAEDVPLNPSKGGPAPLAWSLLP
# Experimental: as §1, §2
# CLK2 = CLK2 (Homo sapiens, UniProt P49760); settings: read-out: % residual kinase activity
# Chain of CLK2 (P49760 whole entry, species assumed): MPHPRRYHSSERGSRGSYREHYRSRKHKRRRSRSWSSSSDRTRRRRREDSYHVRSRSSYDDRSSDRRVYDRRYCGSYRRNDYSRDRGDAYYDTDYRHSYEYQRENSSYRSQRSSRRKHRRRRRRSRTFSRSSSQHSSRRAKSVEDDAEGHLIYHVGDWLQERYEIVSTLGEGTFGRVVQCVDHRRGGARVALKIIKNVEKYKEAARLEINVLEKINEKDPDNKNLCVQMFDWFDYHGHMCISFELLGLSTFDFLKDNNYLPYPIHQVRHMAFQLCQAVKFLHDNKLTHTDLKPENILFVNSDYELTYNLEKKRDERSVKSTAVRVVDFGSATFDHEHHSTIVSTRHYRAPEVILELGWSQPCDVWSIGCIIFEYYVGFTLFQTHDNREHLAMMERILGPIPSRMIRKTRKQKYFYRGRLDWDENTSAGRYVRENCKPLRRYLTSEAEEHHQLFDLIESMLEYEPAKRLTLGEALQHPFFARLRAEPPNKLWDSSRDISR
# Experimental: as §1, §2
# p38d MAPK = p38d MAPK (Homo sapiens, UniProt O15264); settings: read-out: % residual kinase activity
# Chain of p38d MAPK (O15264 whole entry): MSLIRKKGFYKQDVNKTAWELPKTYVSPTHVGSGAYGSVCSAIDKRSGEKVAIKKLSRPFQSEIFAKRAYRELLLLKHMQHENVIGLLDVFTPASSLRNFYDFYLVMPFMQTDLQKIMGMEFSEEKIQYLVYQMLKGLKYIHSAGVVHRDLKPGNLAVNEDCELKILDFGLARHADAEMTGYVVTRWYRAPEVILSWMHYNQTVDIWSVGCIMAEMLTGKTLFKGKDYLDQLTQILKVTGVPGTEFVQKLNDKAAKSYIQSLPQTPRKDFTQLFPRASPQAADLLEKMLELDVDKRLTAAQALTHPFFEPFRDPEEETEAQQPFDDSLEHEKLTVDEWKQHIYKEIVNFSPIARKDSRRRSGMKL
# Experimental: as §1, §2
# EPH-A4 = EPH-A4 (Homo sapiens, UniProt P54764); settings: read-out: % residual kinase activity
# Experimental: as §1, §2
# SmMLCK = SmMLCK (Homo sapiens, UniProt Q15746); settings: read-out: % residual kinase activity
# Experimental: as §1, §2
# TAK1 = TAK1 (Homo sapiens, UniProt O43318); settings: read-out: % residual kinase activity
# Experimental: as §1, §2
# MINK1 = MINK1 (Homo sapiens, UniProt Q8N4C8); settings: read-out: % residual kinase activity
# Experimental: as §1, §2
# CAMK1 = CAMK1 (Homo sapiens, UniProt Q14012); settings: read-out: % residual kinase activity
# Experimental: as §1, §2
# MST4 = MST4 (Homo sapiens, UniProt Q9P289); settings: read-out: % residual kinase activity
# Experimental: as §1, §2
# MAPKAP-K2 = MAPKAP-K2 (Homo sapiens, UniProt P49137)
# Chain of MAPKAP-K2 (P49137 whole entry, species assumed): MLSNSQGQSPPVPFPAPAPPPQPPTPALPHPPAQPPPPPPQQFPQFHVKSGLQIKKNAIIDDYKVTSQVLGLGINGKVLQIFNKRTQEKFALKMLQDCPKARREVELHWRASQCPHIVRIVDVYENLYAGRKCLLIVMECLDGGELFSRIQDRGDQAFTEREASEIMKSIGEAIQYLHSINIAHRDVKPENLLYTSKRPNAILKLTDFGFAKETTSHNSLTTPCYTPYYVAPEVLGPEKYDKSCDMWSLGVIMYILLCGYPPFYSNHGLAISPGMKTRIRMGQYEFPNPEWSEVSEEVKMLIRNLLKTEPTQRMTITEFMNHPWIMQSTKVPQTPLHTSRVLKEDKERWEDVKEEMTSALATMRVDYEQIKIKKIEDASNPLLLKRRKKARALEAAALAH
# Experimental: as §1, §2
# TSSK1 = TSSK1 (Homo sapiens, UniProt Q9BXA7); settings: read-out: % residual kinase activity
# Experimental: as §1, §2
# PHK = PHK (Homo sapiens, UniProt Q16816); settings: read-out: % residual kinase activity
# Experimental: as §1, §2
# Lck = Lck (Homo sapiens, UniProt P06239); settings: read-out: % residual kinase activity
# Chain of Lck (P06239 whole entry, species assumed): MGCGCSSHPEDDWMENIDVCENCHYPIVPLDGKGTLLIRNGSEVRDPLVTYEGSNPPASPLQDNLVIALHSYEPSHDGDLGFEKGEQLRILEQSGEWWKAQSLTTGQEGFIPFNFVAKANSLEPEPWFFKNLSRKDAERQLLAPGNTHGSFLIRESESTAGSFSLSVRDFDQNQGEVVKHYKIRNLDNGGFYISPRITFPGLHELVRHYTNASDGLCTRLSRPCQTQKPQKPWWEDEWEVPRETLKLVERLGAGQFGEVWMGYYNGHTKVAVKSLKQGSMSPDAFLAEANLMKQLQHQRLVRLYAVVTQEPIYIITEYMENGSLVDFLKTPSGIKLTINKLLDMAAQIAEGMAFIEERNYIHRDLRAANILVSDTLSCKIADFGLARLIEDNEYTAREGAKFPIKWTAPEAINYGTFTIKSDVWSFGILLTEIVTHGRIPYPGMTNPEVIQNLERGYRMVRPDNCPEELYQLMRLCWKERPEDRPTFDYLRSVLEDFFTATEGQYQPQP
# Experimental: as §1, §2
# HER4 = HER4 (Homo sapiens, UniProt Q15303); settings: read-out: % residual kinase activity
# Experimental: as §1, §2
# JNK1 = JNK1 (Homo sapiens, UniProt P45983); settings: read-out: % residual kinase activity
# Experimental: as §1, §2
# PKBb = PKBb (Homo sapiens, UniProt P31751); settings: read-out: % residual kinase activity
# Experimental: as §1, §2
# CDK9-Cyclin T1 = CDK9-Cyclin T1 (Homo sapiens, UniProt P50750); settings: read-out: % residual kinase activity
# Experimental: as §1, §2
# LKB1 = LKB1 (Homo sapiens, UniProt Q15831); settings: read-out: % residual kinase activity
# Experimental: as §1, §2
compound,measurement,setting,value
"Cc1cc(C(C#N)c2ccc(Cl)cc2)c(Cl)cc1NC(=O)c1cc(Cl)ccc1O (stereo not drawn) [ZT-1a, 5-chloro-N-(5-chloro-4-((4-chlorophenyl)(cyano)methyl)-2-methylphenyl)-2-hydroxy-benzamide]",remaining activity at 1 µM,TrkA; 1 μM,108 ± 9%
same,remaining activity at 10 µM,TrkA; 10 μM,91 ± 7%
same,remaining activity at 1 µM,IR; 1 μM,105 ± 2%
same,remaining activity at 10 µM,IR; 10 μM,86 ± 13%
same,remaining activity at 1 µM,SGK1; 1 μM,73 ± 14%
same,remaining activity at 10 µM,SGK1; 10 μM,58 ± 5%
same,remaining activity at 1 µM,MLK3; 1 μM,119 ± 11%
same,remaining activity at 10 µM,MLK3; 10 μM,114 ± 3%
same,remaining activity at 1 µM,DDR2; 1 μM,111 ± 20%
same,remaining activity at 10 µM,DDR2; 10 μM,99 ± 8%
same,remaining activity at 1 µM,ERK1; 1 μM,107 ± 16%
same,remaining activity at 10 µM,ERK1; 10 μM,109 ± 18%
same,remaining activity at 1 µM,WNK1; 1 μM,125 ± 17%
same,remaining activity at 10 µM,WNK1; 10 μM,122 ± 35%
same,remaining activity at 1 µM,SYK; 1 μM,93 ± 12%
same,remaining activity at 10 µM,SYK; 10 μM,93 ± 1%
same,remaining activity at 1 µM,ERK2; 1 μM,111 ± 25%
same,remaining activity at 10 µM,ERK2; 10 μM,75 ± 3%
same,remaining activity at 1 µM,HIPK1; 1 μM,98 ± 13%
same,remaining activity at 10 µM,HIPK1; 10 μM,90 ± 4%
same,remaining activity at 1 µM,IRAK1; 1 μM,128 ± 2%
same,remaining activity at 10 µM,IRAK1; 10 μM,95 ± 7%
same,remaining activity at 1 µM,p38b MAPK; 1 μM,124 ± 1%
same,remaining activity at 10 µM,p38b MAPK; 10 μM,124%
same,remaining activity at 1 µM,TGFBR1; 1 μM,63 ± 9%
same,remaining activity at 10 µM,TGFBR1; 10 μM,77 ± 5%
same,remaining activity at 1 µM,PIM2; 1 μM,93 ± 5%
same,remaining activity at 10 µM,PIM2; 10 μM,93 ± 3%
same,remaining activity at 1 µM,CLK2; 1 μM,68 ± 12%
same,remaining activity at 10 µM,CLK2; 10 μM,33 ± 45%
same,remaining activity at 1 µM,p38d MAPK; 1 μM,95 ± 1%
same,remaining activity at 10 µM,p38d MAPK; 10 μM,112 ± 2%
same,remaining activity at 1 µM,EPH-A4; 1 μM,59 ± 33%
same,remaining activity at 10 µM,EPH-A4; 10 μM,90 ± 11%
same,remaining activity at 1 µM,SmMLCK; 1 μM,99 ± 3%
same,remaining activity at 10 µM,SmMLCK; 10 μM,98 ± 9%
same,remaining activity at 1 µM,TAK1; 1 μM,117 ± 22%
same,remaining activity at 10 µM,TAK1; 10 μM,103 ± 5%
same,remaining activity at 1 µM,MINK1; 1 μM,107 ± 5%
same,remaining activity at 10 µM,MINK1; 10 μM,108 ± 6%
same,remaining activity at 1 µM,CAMK1; 1 μM,60 ± 5%
same,remaining activity at 10 µM,CAMK1; 10 μM,71 ± 31%
same,remaining activity at 1 µM,MST4; 1 μM,63 ± 10%
same,remaining activity at 10 µM,MST4; 10 μM,63%
same,inhibition at 10 µM,"MAPKAP-K2; 10 μM, read-out: inhibition of MAPKAP-K2 activity compared to DMSO control",85 ± 7%
same,remaining activity at 1 µM,"MAPKAP-K2; MAPKAP-K2, 1 μM, read-out: % residual kinase activity",91 ± 13%
same,remaining activity at 10 µM,"MAPKAP-K2; MAPKAP-K2, 10 μM, read-out: % residual kinase activity",13 ± 7%
same,remaining activity at 1 µM,TSSK1; 1 μM,99 ± 2%
same,remaining activity at 10 µM,TSSK1; 10 μM,74 ± 6%
same,remaining activity at 1 µM,PHK; 1 μM,97 ± 3%
same,remaining activity at 10 µM,PHK; 10 μM,107 ± 2%
same,remaining activity at 1 µM,Lck; 1 μM,112 ± 13%
same,remaining activity at 10 µM,Lck; 10 μM,127 ± 14%
same,remaining activity at 1 µM,HER4; 1 μM,85 ± 8%
same,remaining activity at 10 µM,HER4; 10 μM,84 ± 1%
same,remaining activity at 1 µM,JNK1; 1 μM,106 ± 4%
same,remaining activity at 10 µM,JNK1; 10 μM,110 ± 5%
same,remaining activity at 1 µM,PKBb; 1 μM,76 ± 14%
same,remaining activity at 10 µM,PKBb; 10 μM,51 ± 13%
same,remaining activity at 1 µM,CDK9-Cyclin T1; 1 μM,104%
same,remaining activity at 10 µM,CDK9-Cyclin T1; 10 μM,108 ± 1%
same,remaining activity at 1 µM,LKB1; 1 μM,107 ± 8%
same,remaining activity at 10 µM,LKB1; 10 μM,115 ± 11%
